In the supplement of paper PMC10307832:

Columns and labels:
Test in all cases: relative viability (nuclei count vs DMSO), 5 days (fraction); higher = more cells survive
[1] = compound: C1CC(C1)(C(=O)O)C(=O)O.[NH2-].[NH2-].[Pt+2] [Carboplatin] + C[C@@H](Oc1cc(-c2cnn(C3CCNCC3)c2)cnc1N)c1c(Cl)ccc(F)c1Cl [Crizotinib] (partner 1 µM)
Method in brief: (§1)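 Cells from lung cancer lines were seeded into 1536-well plates and, one day later, dosed by pin tool. Treatments were either a single drug or a fixed dose of an anchor drug with five library-drug doses (not always all listed) in √10 steps. After 5 days, nuclei were stained in a one-step fixation (final 0.05% Triton X-100, 1% formaldehyde, 1 ug/ml Hoechst) and counted on 4× images, and relative viability is the treated-to-vehicle nuclei ratio, as the median of duplicate plates.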

[2] = compound: C1CC(C1)(C(=O)O)C(=O)O.[NH2-].[NH2-].[Pt+2] [Carboplatin] + O=C(CCCCCCC(=O)Nc1ccccc1)NO [Vorinostat] (partner 1 µM)
Method in brief: as §1

[3] = compound: NS(=O)(=O)OC[C@@H]1C[C@@H](n2ccc3c(N[C@H]4CCc5ccccc54)ncnc32)C[C@@H]1O [MLN4924] + CC1(C)CCC(c2ccc(Cl)cc2)=C(CN2CCN(c3ccc(C(=O)NS(=O)(=O)c4ccc(N[C@H](CCN5CCOCC5)CSc5ccccc5)c(S(=O)(=O)C(F)(F)F)c4)cc3)CC2)C1 [Navitoclax] (partner 0.5 µM)
Method in brief: as §1

[4] = compound: NS(=O)(=O)OC[C@@H]1C[C@@H](n2ccc3c(N[C@H]4CCc5ccccc54)ncnc32)C[C@@H]1O [MLN4924] + O=C(c1cc(Cc2n[nH]c(=O)c3ccccc23)ccc1F)N1CCN(C(=O)C2CC2)CC1 [Olaparib] (partner 8 µM)
Method in brief: as §1

Cell Line	relative viability ([1]; first compound 0.08 µM)	relative viability ([1]; first compound 0.8 µM)	relative viability ([1]; first compound 2.53 µM)	relative viability ([1]; first compound 8 µM)	relative viability ([2]; first compound 0.08 µM)	relative viability ([2]; first compound 0.253 µM)	relative viability ([2]; first compound 0.8 µM)	relative viability ([2]; first compound 2.53 µM)	relative viability ([2]; first compound 8 µM)	relative viability ([3]; first compound 0.04 µM)	relative viability ([3]; first compound 0.1265 µM)	relative viability ([3]; first compound 0.4 µM)	relative viability ([3]; first compound 1.265 µM)	relative viability ([3]; first compound 4 µM)	relative viability ([4]; first compound 0.04 µM)	relative viability ([4]; first compound 0.1265 µM)	relative viability ([4]; first compound 0.4 µM)	relative viability ([4]; first compound 1.265 µM)	relative viability ([4]; first compound 4 µM)	relative viability ([1]; first compound 0.253 µM)
LCLC-97TM1	0.338	0.271	0.288	0.312	0.753	0.749	0.661	0.504	0.654	0.277	0.281	0.139	0.134	0.109	0.282	0.138	0.0947	0.0518	0.0597	
HCC-366	0.518	0.445	0.465	0.154	0.451	0.311	0.317	0.29	0.114	1.06	1.09	0.353	0.241	0.0154	0.341	0.352	0.272	0.0846	0.0262	0.659
HARA	1.01	0.934	0.824	0.954	0.471	0.561	0.472	0.519	0.35	0.847	0.601	0.379	0.105	0.115	0.401	0.413	0.127	0.0734	0.107	1.06
NCI-H1915	0.873	0.875	0.756	0.521	0.508	0.506	0.513	0.48	0.299	0.725	0.744	0.642	0.246	0.265	0.314	0.22	0.221	0.142	0.129	0.929
NCI-H1650	1.2	0.907	0.824	0.533	0.64	0.584	0.599	0.459	0.271	1.02	0.739	0.438	0.156	0.176	0.609	0.616	0.34	0.175	0.166	0.968
NCI-H2126	1.04	1.02	0.962	1	0.804	0.894	0.832	0.823	0.856	0.764	0.742	0.621	0.386	0.446	0.862	0.668	0.618	0.258	0.246	1.06
NCI-H838	0.838	0.784	0.861	0.797	0.733	0.705	0.728	0.626	0.608	0.831	0.307	0.211	0.16	0.196	0.434	0.243	0.197	0.124	0.136	0.918
EPLC-272H	0.975	0.892	0.888	0.937	0.559	0.377	0.569	0.337	0.293	0.94	1.02	0.104	0.12	0.141	0.352	0.176	0.0677	0.0995	0.105	1.05
NCI-H1437	0.909	0.892	0.936	0.805	0.803	0.869	0.728	0.808	0.598	1.03	0.906	0.571	0.347	0.143	0.582	0.499	0.409	0.253	0.153	0.96
NCI-H2405	0.901	0.847	0.813	0.754	1.19	0.983	1.12	1.11	0.767	0.874	0.702	0.273	0.13	0.171	0.748	0.524	0.323	0.239	0.231	0.906
NCI-H1666	0.997	0.838	0.917	0.568	1.09	0.966	1.04	0.921	0.665	0.858	0.503	0.328	0.213	0.224	0.774	0.691	0.657	0.468	0.388	1.07
NCI-H1993	0.958	0.892	0.775	0.723	0.801	0.809	0.8	0.712	0.522	0.962	0.618	0.584	0.505	0.584	0.776	0.481	0.652	0.422	0.426	0.909
HCC-78	0.367	0.315	0.308	0.304	0.472	0.403	0.386	0.378	0.431	0.91	0.537	0.767	0.158	0.117	0.867	0.967	0.684	0.222	0.22	0.325
LU99A	0.62	0.556	0.464	0.422	0.507	0.577	0.485	0.418	0.292	0.46	0.267	0.243	0.158	0.166	0.18	0.136	0.16	0.108	0.0968	0.665
NCI-H520	0.943	0.709	0.576	0.601	0.668	0.745	0.837	0.775	0.395	0.629	0.583	0.298	0.227	0.223	0.273	0.217	0.24	0.151	0.167	0.914
NCI-H1975	0.955	0.919	0.969	0.911	0.783	0.711	0.579	0.534	0.656	1.15	1.27	1.14	0.571	0.309	0.706	0.948	0.829	0.498	0.213	0.943
